According to patent publication US6962937B2, “Imidazolidine derivatives, their preparation and their use” (Aventis Pharma Deutschland GmbH, priority 2001, dated 2005):
Where a name gives a salt, the structure may show the parent alone.

target: T1, interaction between VCAM-1 and VLA-4 (Homo sapiens, UniProt P05556+P13612); assay: U937/VCAM-1 cell adhesion test (adhesion of U937 cells to hVCAM-1 (1-3)-IgG); assay type: cell-based; conditions: inhibition of adhesion of human U937 cells (ATCC CRL 1593) to hVCAM-1 (1-3)-IgG
T1 construct: supplied in their natural form as surface molecules on human U937 cells; host or cells: U937 cells (endogenous VLA-4); The partner hVCAM-1(1-3)-IgG was made in house in transfected COS cells (ATCC CRL1651) and used as culture supernatant
T1 sequence (P13612 34-1032): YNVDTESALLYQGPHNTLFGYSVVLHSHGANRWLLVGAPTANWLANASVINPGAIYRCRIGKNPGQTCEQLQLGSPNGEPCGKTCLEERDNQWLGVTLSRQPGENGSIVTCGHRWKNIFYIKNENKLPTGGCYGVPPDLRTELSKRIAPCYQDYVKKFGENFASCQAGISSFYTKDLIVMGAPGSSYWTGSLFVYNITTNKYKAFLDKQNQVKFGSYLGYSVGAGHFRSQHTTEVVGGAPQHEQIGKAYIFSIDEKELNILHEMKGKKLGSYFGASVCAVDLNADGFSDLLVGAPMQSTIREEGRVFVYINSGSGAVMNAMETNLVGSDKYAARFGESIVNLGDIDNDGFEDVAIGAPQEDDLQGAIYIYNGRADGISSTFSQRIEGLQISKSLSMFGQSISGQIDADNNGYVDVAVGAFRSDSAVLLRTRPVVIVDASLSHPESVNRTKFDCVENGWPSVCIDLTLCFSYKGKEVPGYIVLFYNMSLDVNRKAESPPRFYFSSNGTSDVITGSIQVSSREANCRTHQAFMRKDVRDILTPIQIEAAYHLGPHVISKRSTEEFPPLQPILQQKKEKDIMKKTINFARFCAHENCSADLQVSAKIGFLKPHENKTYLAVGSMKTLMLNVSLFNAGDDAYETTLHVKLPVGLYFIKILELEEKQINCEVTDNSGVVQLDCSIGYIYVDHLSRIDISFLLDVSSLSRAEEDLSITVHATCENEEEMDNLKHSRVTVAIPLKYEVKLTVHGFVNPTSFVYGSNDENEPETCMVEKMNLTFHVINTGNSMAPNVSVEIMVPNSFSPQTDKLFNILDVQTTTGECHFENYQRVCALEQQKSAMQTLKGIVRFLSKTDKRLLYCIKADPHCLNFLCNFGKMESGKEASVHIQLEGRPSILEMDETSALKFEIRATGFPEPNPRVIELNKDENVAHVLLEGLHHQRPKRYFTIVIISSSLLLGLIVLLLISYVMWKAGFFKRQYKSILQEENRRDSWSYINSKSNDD
T1 sequence (P05556 21-798): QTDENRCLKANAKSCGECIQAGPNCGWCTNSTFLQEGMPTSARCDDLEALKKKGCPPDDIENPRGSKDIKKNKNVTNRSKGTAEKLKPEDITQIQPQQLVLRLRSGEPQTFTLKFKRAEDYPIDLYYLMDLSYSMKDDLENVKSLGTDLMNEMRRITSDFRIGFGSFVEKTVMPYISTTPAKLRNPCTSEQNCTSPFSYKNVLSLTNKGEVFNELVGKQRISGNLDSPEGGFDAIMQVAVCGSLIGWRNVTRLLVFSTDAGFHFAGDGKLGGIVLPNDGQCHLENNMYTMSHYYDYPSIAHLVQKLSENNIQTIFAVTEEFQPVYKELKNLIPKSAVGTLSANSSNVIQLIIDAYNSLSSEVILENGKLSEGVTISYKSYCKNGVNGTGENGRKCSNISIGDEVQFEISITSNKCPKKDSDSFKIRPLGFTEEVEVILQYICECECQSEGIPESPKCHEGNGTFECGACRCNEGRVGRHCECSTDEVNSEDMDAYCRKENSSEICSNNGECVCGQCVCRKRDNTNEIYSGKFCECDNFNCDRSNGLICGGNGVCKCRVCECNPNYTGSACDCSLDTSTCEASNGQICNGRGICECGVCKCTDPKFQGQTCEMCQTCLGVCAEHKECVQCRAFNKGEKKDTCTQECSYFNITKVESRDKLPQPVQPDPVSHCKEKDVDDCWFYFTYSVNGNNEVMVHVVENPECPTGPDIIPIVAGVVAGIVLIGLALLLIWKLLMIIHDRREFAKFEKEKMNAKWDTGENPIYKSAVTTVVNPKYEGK
Description: A) U937/VCAM-1 Cell Adhesion Test (Assay for Measuring the Adhesion of U937 Cells (ATCC CRL 1593) to hVCAM-1 (1-3)-IqG)
The assay described below which is specific for the interaction between VCAM-1 and VLA-4, is used as the method for testing the activity of the compounds of the formula I on this interaction. The cellular binding partners, that is the VLA-4 integrins, are supplied in their natural form as surface molecules on human U937 cells (ATCC CRL 1593) which belong to the leukocyte group. The specific binding partners employed are recombinantly prepared soluble fusion proteins which consist of the extracytoplasmic domain of human VCAM-1 and the constant region of a human immunoglobulin of the IgG1 subclass.
1. Preparation of Human VCAM-1 (1-3)-IqG and Human CD4-IgG
A gene construct for expressing the extracellular domain of human VCAM-1 linked to the gene sequence for the heavy chain of human immunoglobulin IgG1 (hinge, CH2 and CH3 regions) (from Dr. Brian Seed, Massachusetts General Hospital, Boston, USA; cf. Damle and Aruffo, Proc. Natl. Acad. Sci. USA, 1991, 88:6403) was employed. The soluble fusion protein hVCAM-1 (1-3)-IgG contained the three aminoterminal extracellular immunoglobulin-like domains of human VCAM-1 (Damle and Aruffo, Proc. Natl. Acad. Sci. USA, 1991, 88:6403). CD4-IgG (Zettimeissl et al., DNA and Cell Biology, 1990, 9:347) was used as the fusion protein for negative controls. The recombinant proteins were expressed as soluble proteins following the DEAE/dextran-mediated transfection of DNA into COS cells (ATCC CRL1651) using standard procedures (Ausubel et a., Current protocols in molecular biology, John Wiley & Sons, Inc., 1994).
2. Assay for Measuring the Adhesion of U937 Cells to hVCAM-1 (1-3)-IgG […]
2.6 U937 cells were incubated in Fc receptor blocking buffer for 20 minutes and then pipetted in at a concentration of 1×10^6/mL and in a quantity of 100 μL per well (final volume: 125 μL/well). […]

Row | Compound | IC50
1 | COc1cc(CN2C(=O)N([C@H](CN[C@@H](CC(=O)O)c3ccccc3)CC3CC3)C(=O)C2(C)C)ccc1NC(=O)Nc1ccccc1C [Example 6, (S)-3-((S)-2-(4,4-Dimethyl-3-(4-(3-(2-methylphenyl)ureido)-3-methoxybenzyl)-2,5-dioxoimidazolidin-1-yl)-3-cyclopropylpropylamino)-3-phenylpropionic acid hydrochloride] | 66.2 nM
2 | COc1cc(CN2C(=O)N([C@H](CN[C@@H](CC(=O)O)c3ccc(OC)c(OC)c3)CC3CC3)C(=O)C2(C)C)ccc1NC(=O)Nc1ccccc1C [Example 14, (S)-3-((S)-2-(4,4-Dimethyl-3-(4-(3-(2-methylphenyl)ureido)-3-methoxybenzyl)-2,5-dioxoimidazolidin-1-yl)-3-cyclopropylpropylamino)-3-(3,4-dimethoxyphenyl)propionic acid hydrochloride] | 8.2 nM
3 | COc1cc(CN2C(=O)N([C@H](CN[C@@H](CC(=O)O)c3ccc4c(c3)OCO4)CC3CC3)C(=O)C2(C)C)ccc1NC(=O)Nc1ccccc1C [Example 17, (S)-3-((S)-2-(4,4-Dimethyl-3-(4-(3-(2-methylphenyl)ureido)-3-methoxybenzyl)-2,5-dioxoimidazolidin-1-yl)-3-cyclopropylpropylamino)-3-(3,4-methylenedioxyphenyl)propionic acid hydrochloride] | 24.4 nM
